Key:
Sprague-Dawley rats [1] = assay: Infarct volume after transient middle cerebral artery occlusion, ischemia/reperfusion (I/R); type: in vivo, rat
Experimental: Sprague-Dawley rats were used to study the effects of (Ia) on reperfusion injury following stroke in a rodent model. The rats were anesthetized, and injected with (la) (0.01-0.1 mg/kg). After 30 minutes, occlusion of the middle cerebral artery (MCA) was performed.
The detailed methodology for permanent middle cerebral artery occlusion (MCAO) and transient (I/R) occlusion of the middle cerebral artery has been published previously.^46 Briefly, animals were placed in a David Kopf stereotaxic frame (Tujunga, Calif.), and the right middle cerebral artery (MCA) approached through a rostral-caudal incision of the skin and frontalis muscle at the approximate level of bregma. Blood flow through the MCA was impeded by the placement of surgical suture behind the MCA at three designated positions along the exposed vessel. The sutures were positioned so that the middle of each suture applied pressure to the underside of the MCA and impeded blood flow as confirmed using laser Doppler flowmetry (OxyFlo, Oxford-Optronix, Oxford, UK; Ref. 46). This three-point placement of surgical sutures produced a highly reproducible and consistent focal ischemic lesion (permanent ischemia) restricted to the prefrontal cerebral cortex. For transient I/R, the sutures were left in place for 30 min and then removed (reperfusion) to allow blood flow to return to the area for an additional 5.5 h (209 rats received I/R). In 12 rats, sutures were left in place for 6 h as a model of permanent ischemia.
To examine the effect of the compound of Formula (Ia) on I/R-induced cell death, injections of the compound of Formula (Ia) (0.01, 0.05, 0.1, or 0.5 mg/kg; 1 ml/kg iv; n=4 per group) or vehicle (25% EtOH; 1 ml/kg iv; n=6) were made 30 min prior to the onset of MCAO. The sutures were left in place for 30 min and removed. Reperfusion was allowed for 5.5 h, and the experiment was terminated.
To determine whether the compound of Formula (Ia) was neuroprotective when administered during the 30-min period of occlusion, injections of the compound of Formula (Ia) at a dose that produced optimal neuroprotection based on the dose-response-curve described above (0.1 mg/kg; 1 ml/kg iv; n=4) or vehicle (25% EtOH; 1 mi/kg iv; n=4) were made 15 min following the onset of MCAO. After a further 15 min, the sutures were removed to allow for an additional 5.5 h of reperfusion.
To examine the effect of the compound of Formula (Ia) on reperfusion injury alone, injections of the optimal dose of the compound of Formula (Ia) (0.1 mg/kg; 1 ml/kg iv; n=4 per group) or vehicle (1 ml/kg iv; n=4 or 5 per group) were made following 30 min of MCAO, immediately prior to the removal of the sutures, or 30, 60, 90, 120, or 180 min following suture removal (start of reperfusion). In all cases, the experiments were terminated following 5.5 h of reperfusion.
To determine whether the compound of Formula (Ia) required bioactivation and/or metabolism to an active intermediate to produce neuroprotection, the effect of direct intracortical injections of the compound of Formula (Ia) on infarct volume were investigated in the present model of transient occlusion (I/R). The compound of Formula (Ia) (0.01, 0.1, 0.5, or 1.0 μM in 200 n1; n=4 per group) or the same volume of vehicle (0.0125% EtOH; 200 n1; n=6) was injected into the ipsilateral hemisphere (bregma—0.3 mm, lateral—5.5 mm and depth of—3.0 mm from the dorsal surface of the brain)^47 10 min prior to suture placement followed by 30 min of MCAO and 5.5 h of reperfusion.
To examine the effect of the compound of Formula (Ia) on the change in infarct volume over the 5.5 h of reperfusion, injections of the optimal dose of the compound of Formula (Ia) (0.1 mg/kg; 1 ml/kg iv; n=4 per group) or vehicle (25% EtOH; 1 ml/kg iv; n=4) were made 30 min prior to the onset of MCAO. The sutures were left in place for 30 min. […]

Sprague-Dawley rats [2] = assay: Infarct volume after permanent (6 h) middle cerebral artery occlusion; type: in vivo, rat; conditions: 0.1 or 1.0 mg/kg iv 30 min prior to 6 h permanent occlusion (no reperfusion)
Source text: The detailed methodology for permanent middle cerebral artery occlusion (MCAO) and transient (I/R) occlusion of the middle cerebral artery has been published previously.^46 Briefly, animals were placed in a David Kopf stereotaxic frame (Tujunga, Calif.), and the right middle cerebral artery (MCA) approached through a rostral-caudal incision of the skin and frontalis muscle at the approximate level of bregma. Blood flow through the MCA was impeded by the placement of surgical suture behind the MCA at three designated positions along the exposed vessel. […] The concentration of 0.1 mg/kg represents the optimal dose of the compound of Formula (Ia), as determined above, and 1.0 mg/kg represents a 10-fold higher concentration of the optimal dose, as the optimal dose of 0.1 mg/kg was not effective in producing neuroprotection. […] At the end of each experiment in which infarct volume was measured, animals were transcardially perfused with PBS (0.1 M; 200 ml), the brains were removed and sliced into 1-mm coronal sections using a rat brain matrix (Harvard Apparatus, Holliston, Mass.). […] Infarct volumes were calculated with the use of scanned digital images of each brain section. The infarct area for both sides of each brain section was calculated using a computer-assisted imaging system (Scion, Frederick, Md.). […]

## COc1cc(C(C)=O)ccc1OC(=O)CCCCC1CCSS1 (stereo not drawn) [compound of Formula (Ia)]
Sprague-Dawley rats [1]; 0.1 mg/kg iv 15 min into 30-min MCAO (15 min prior to reperfusion)
  infarct volume after 5.5 h reperfusion vs vehicle: significant neuroprotection
Sprague-Dawley rats [1]; 0.1 mg/kg iv 30 min following the start of reperfusion
  infarct volume after 5.5 h reperfusion vs vehicle: significant decreases in infarct volume
Sprague-Dawley rats [1]; 0.1 mg/kg iv 30 min prior to MCAO, 30 min MCAO, 5.5 h reperfusion
  infarct volume following I/R vs vehicle: significant decrease in infarct volume
Sprague-Dawley rats [1]; 0.1 mg/kg iv 30 min prior to MCAO, end of 5.5 h of reperfusion
  mean infarct volume smaller than the vehicle group: ~53%
Sprague-Dawley rats [1]; 0.1 mg/kg iv 30 min prior to MCAO, measured at 4 h
  mean infarct volume vs vehicle, time course: significantly smaller
Sprague-Dawley rats [1]; 0.1 mg/kg iv 30 min prior to MCAO, measured at 6 h
  mean infarct volume vs vehicle, time course: significantly smaller
Sprague-Dawley rats [1]; 0.1 mg/kg iv 60 min following the start of reperfusion
  infarct volume after 5.5 h reperfusion vs vehicle: significant decreases in infarct volume
Sprague-Dawley rats [1]; 0.1 mg/kg iv 90 min following the start of reperfusion
  infarct volume after 5.5 h reperfusion vs vehicle: significant decreases in infarct volume
Sprague-Dawley rats [1]; 0.1 mg/kg iv 120 min following suture removal
  infarct volume after 5.5 h reperfusion vs vehicle: did not result in a significant difference in infarct volume
Sprague-Dawley rats [1]; 0.1 mg/kg iv 180 min following suture removal
  infarct volume after 5.5 h reperfusion vs vehicle: did not result in a significant difference in infarct volume
Sprague-Dawley rats [1]; 0.1 mg/kg iv at time 0 (start of reperfusion)
  infarct volume after 5.5 h reperfusion vs vehicle: significant decreases in infarct volume
Sprague-Dawley rats [1]; 0.5 mg/kg iv 30 min prior to MCAO, 30 min MCAO, 5.5 h reperfusion
  infarct volume following I/R vs vehicle: significant decrease in infarct volume
Sprague-Dawley rats [1]; 0.01, 0.05, 0.1, 0.5 mg/kg iv 30 min prior to MCAO, 30 min MCAO, 5.5 h reperfusion
  neuroprotection (infarct volume) following I/R: dose-dependent neuroprotection
Sprague-Dawley rats [1]; Example 3, 0.01-0.1 mg/kg injected 30 minutes before MCA occlusion, vs ethanol vehicle
  stroke infarct volume: dose-dependent reduction in stroke infarct volume
Sprague-Dawley rats [1]; I/R model, iv
  dose required to produce significant neuroprotection: 0.1 mg/kg
Sprague-Dawley rats [1]; direct intracortical preinjection 1.0 μM (200 nl) 10 min pre-MCAO
  infarct volume following I/R vs vehicle: significant decrease in infarct volume
Sprague-Dawley rats [1]; optimal dose (0.1 mg/kg iv)
  latest administration time giving significant neuroprotection, following the start of reperfusion: up to 90 min
Sprague-Dawley rats [2]
  neuroprotection (infarct volume) in permanent MCAO: did not produce neuroprotection
